Assay results: ChEMBL document CHEMBL1201862, “PubChem BioAssay data set” (2004)
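Tested at 5 concentrations; 48 h exposure; 96-well plates; endpoints linearly interpolated, else capped at highest concentration. GI50: concentration for 50% inhibition of growth.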 Calls of active or inactive are those of the source. Rule as the data show it: active = GI50 up to about 1.1 µM and inactive = higher.

Tests used:
Test in all cases: NCI tumour cell line growth inhibition, 48 h
CAKI-1 = system: CAKI-1
DU-145 = system: DU-145
HCC 2998 = system: HCC 2998
HCT-116 = system: HCT-116
HCT-15 = system: HCT-15
HOP-92 = system: HOP-92
KM12 = system: KM12
MOLT-4 = system: MOLT-4
NCI-H226 = system: NCI-H226
NCI-H522 = system: NCI-H522
OVCAR-3 = system: OVCAR-3
PC-3 = system: PC-3
RXF 393 = system: RXF 393
SK-MEL-28 = system: SK-MEL-28
SK-MEL-5 = system: SK-MEL-5
SN12C = system: SN12C
SNB-19 = system: SNB-19
SW-620 = system: SW-620
HOP-62 = system: HOP-62

Measured: GI50

COc1c2c(cc3oc(C)cc(=O)c13)OC(=N)C(C(N)=O)C2CC(=O)c1ccc(N)cc1 (centres undefined)
> 100 µM: HCT-15
inactive: CAKI-1 > 100 µM | DU-145 > 100 µM | HCC 2998 > 100 µM | HCT-116 > 100 µM | HOP-92 > 100 µM | KM12 > 100 µM | MOLT-4 > 100 µM | NCI-H226 > 100 µM | NCI-H522 > 100 µM | OVCAR-3 > 100 µM | PC-3 > 100 µM | RXF 393 > 100 µM | SK-MEL-28 > 100 µM | SK-MEL-5 > 100 µM | SN12C > 100 µM | SNB-19 > 100 µM | SW-620 > 100 µM

Oc1nc2c(c(-c3ccc(F)cc3)n1)COC/C2=C\c1ccc(F)cc1
> 100 µM: HCT-15
inactive: CAKI-1 > 100 µM | DU-145 > 100 µM | HCC 2998 > 100 µM | HCT-116 > 100 µM | HOP-62 > 100 µM | HOP-92 > 100 µM | KM12 > 100 µM | MOLT-4 > 100 µM | NCI-H226 > 100 µM | NCI-H522 > 100 µM | OVCAR-3 > 100 µM | PC-3 > 100 µM | RXF 393 > 100 µM | SK-MEL-5 > 100 µM | SN12C > 100 µM | SNB-19 > 100 µM | SW-620 > 100 µM

COC(=O)CCc1ccc(CCC(=O)OC)cc1
> 100 µM: HCT-15
inactive: CAKI-1 > 100 µM | DU-145 > 100 µM | HCC 2998 > 100 µM | HCT-116 > 100 µM | HOP-62 > 100 µM | HOP-92 > 100 µM | MOLT-4 > 100 µM | NCI-H522 > 100 µM | OVCAR-3 > 100 µM | PC-3 > 100 µM | RXF 393 > 100 µM | SK-MEL-28 > 100 µM | SK-MEL-5 > 100 µM | SNB-19 > 100 µM | SW-620 > 100 µM

O=C(O)COc1cc(-c2ccccc2)nc2cc(F)ccc12
> 100 µM: HCT-15
inactive: CAKI-1 > 100 µM | DU-145 > 100 µM | HCC 2998 60 µM | HCT-116 > 100 µM | HOP-62 > 100 µM | HOP-92 > 100 µM | KM12 > 100 µM | MOLT-4 > 100 µM | NCI-H226 > 100 µM | NCI-H522 > 100 µM | OVCAR-3 > 100 µM | PC-3 > 100 µM | SK-MEL-28 > 100 µM | SK-MEL-5 > 100 µM | SN12C > 100 µM | SNB-19 > 100 µM | SW-620 > 100 µM

Cc1c2ccccc2c(C)n2c1nc1cc3ccccc3cc12
active: HOP-92 0.00215 µM | OVCAR-3 0.968 µM
inactive: CAKI-1 1.24 µM | DU-145 1.3 µM | HCC 2998 1.78 µM | HCT-116 1.37 µM | HOP-62 1.34 µM | KM12 1.32 µM | MOLT-4 1.32 µM | NCI-H522 1.74 µM | PC-3 1.27 µM | SK-MEL-28 1.46 µM | SK-MEL-5 1.94 µM | SN12C 1.79 µM | SNB-19 1.54 µM | SW-620 1.56 µM
1.36 µM: HCT-15

COC(=O)C1=C(OC(=O)c2ccccc2)C(C(=O)OC)[C@]2(O)[C@@H](C(=O)OC)[C@H]1C[C@@H](c1ccccc1)[C@@H]2C(=O)OC (some centres undefined)
inactive: CAKI-1 14.2 µM | DU-145 9.4 µM | HCC 2998 7.21 µM | HCT-116 3.96 µM | HOP-62 13.2 µM | HOP-92 2.82 µM | KM12 8.63 µM | MOLT-4 3.64 µM | NCI-H226 2.56 µM | OVCAR-3 10.8 µM | PC-3 4.82 µM | RXF 393 3.14 µM | SK-MEL-28 12.2 µM | SK-MEL-5 4.85 µM | SN12C 8.43 µM | SNB-19 10.7 µM | SW-620 5.12 µM
7.82 µM: HCT-15

CC(=O)Oc1ccc(-c2cc3ccccc3oc2=O)cc1
inactive: DU-145 > 100 µM | HCC 2998 > 100 µM | HCT-116 > 100 µM | HOP-62 > 100 µM | HOP-92 60.8 µM | KM12 18.7 µM | MOLT-4 45.6 µM | NCI-H226 > 100 µM | NCI-H522 21.8 µM | OVCAR-3 6.27 µM | PC-3 > 100 µM | SK-MEL-28 > 100 µM | SN12C > 100 µM | SNB-19 > 100 µM | SW-620 > 100 µM
> 100 µM: HCT-15

CCCCCC(=O)OCC(=O)[C@H]1[C@H](C)C[C@H]2[C@@H]3C[C@H](F)C4=C/C(=N/OC(=O)c5cccc6c(=O)c7ccccc7[nH]c56)C=C[C@]4(C)[C@H]3[C@@H](O)C[C@@]21C
inactive: CAKI-1 41.8 µM | DU-145 39.4 µM | HCC 2998 24.7 µM | HCT-116 26.4 µM | HOP-62 33.4 µM | HOP-92 73.1 µM | KM12 10.7 µM | MOLT-4 17.8 µM | NCI-H226 4.78 µM | NCI-H522 14.3 µM | OVCAR-3 18.9 µM | PC-3 20.3 µM | SK-MEL-5 14.7 µM | SN12C 20 µM | SNB-19 37.3 µM | SW-620 28.2 µM
26.6 µM: HCT-15

CC1=NN(c2cccc(Cl)c2)C(=N/c2nc3ccccc3s2)/C1=C\c1ccc(Cl)cc1
inactive: DU-145 34.2 µM | HCC 2998 16.4 µM | HCT-116 16.9 µM | HOP-62 21.5 µM | HOP-92 17.4 µM | MOLT-4 24.4 µM | NCI-H226 21.2 µM | NCI-H522 18.7 µM | OVCAR-3 21.7 µM | PC-3 16.4 µM | RXF 393 20.3 µM | SK-MEL-28 20.8 µM | SK-MEL-5 15.8 µM | SW-620 19.9 µM
14.2 µM: HCT-15

CN(C)CCNC1=C(Cl)C(=O)c2c(O)ccc(O)c2C1=O
inactive: DU-145 1.94 µM | HCC 2998 1.79 µM | HCT-116 1.91 µM | HOP-62 1.95 µM | HOP-92 2.17 µM | KM12 1.82 µM | MOLT-4 2.88 µM | NCI-H226 23.6 µM | NCI-H522 1.79 µM | OVCAR-3 1.98 µM | PC-3 6.31 µM | RXF 393 4.34 µM | SK-MEL-28 2.12 µM | SK-MEL-5 1.54 µM | SN12C 1.89 µM | SNB-19 1.95 µM | SW-620 2.02 µM
2.51 µM: HCT-15

C[C@@H]1CC[C@@]2(OC1)O[C@H]1[C@@H](O)[C@H]3[C@@H]4CC[C@H]5C[C@@H](O[C@@H]6O[C@H](CO)[C@H](O[C@@H]7O[C@H](CO)C(O)[C@H](O[C@@H]8OC[C@@H](O)[C@H](O)[C@H]8O)[C@H]7O[C@@H]7O[C@H](CO)[C@H](O)[C@H](O[C@@H]8O[C@H](CO)[C@@H](O)[C@H](O)[C@H]8O)[C@H]7O)[C@H](O)[C@H]6O)[C@H](O)C[C@]5(C)[C@H]4CC[C@]3(C)[C@H]1[C@@H]2C (some centres undefined) [DIGITONIN]
4.03 µM: HCT-15
inactive: CAKI-1 1.39 µM | DU-145 2.05 µM | HCC 2998 1.66 µM | HCT-116 1.95 µM | HOP-62 2.37 µM | HOP-92 4.74 µM | KM12 2.12 µM | MOLT-4 3.9 µM | NCI-H226 1.51 µM | NCI-H522 2.06 µM | OVCAR-3 1.55 µM | PC-3 2.57 µM | SK-MEL-28 2.61 µM | SK-MEL-5 4.5 µM | SN12C 2.97 µM | SNB-19 2.07 µM | SW-620 5.52 µM
